{"source": "patent US8853188B2", "about": "“Compositions and methods for cancer treatment” (Women and Infants Hospital of RI, Inc., priority 2005, dated 2014)", "key": {"[1]": {"conditions": "mouse, in vivo", "protocol": "FIG. 6A. In vivo studies to determine apparent systemic toxicity of B3CD. Mice were injected with the specified amounts of B3CD (i.p.) once in 48 hr for 28 days. The animals were weighed to assess the effect of B3CD on change in body weight.\nFIG. 6B. At the end of the experiment (6A) mice were sacrificed and blood collected to estimate serum calcium as a measure of hypercalcemia.\nA major concern was the potential systemic toxicity of B3CD due to hypercalcemia since B3CD (FIG. 1) is a derivative of calcidiol, which is a family member of calcitriol (Schmidt-Gayk H, Bouillon R, Roth H J. Measurement of vitamin D and its metabolites (calcidiol and calcitriol) and their clinical significance. Scand J Clin Lab Invest Suppl. 1997; 227:35-45). Therapeutic doses of calcitriol lead to increased serum calcium and consequently death; therefore, hypercalcemia is a hallmark of lethality of pharmacologic doses of calcitriol. In the event that further testing in vivo might show lethal calcemic side effects, preliminary studies were carried out to determine any overt toxic effects in a murine model.\nThe effect of B3CD on serum calcium levels in SCID mice was tested. These studies were carried out in Boston University School of Medicine, Boston, Mass., in accordance with institutional guidelines. B3CD, calcidiol and calcitriol were formulated in 80% polyethylene glycol in PBS and were administered as i.p. injections once in 48 hours for 28 days. Animals were euthanized, sera collected and analyzed immediately for serum calcium in the hospital core facility. The animals were divided into 4 groups of 5 animals each."}, "[2]": {"system": "panel of cancer cells", "assay": "Antiproliferative and cytotoxic activity on a panel of cancer cells (MTS, 96 well plates)", "format": "cell-based", "conditions": "parent compound used as control; data not shown", "text": "A panel of cancer cells is used to evaluate the antiproliferative and cytotoxic activities of B3CD and related analogs. The cells include colon (Colo), breast (MCF-7 and MDA-MB-231), lung (A549), prostate PC3 and LNCaP), melanoma (SK-MEL-31), renal (Caki-1), ovarian (OVCAR-3), bladder (T24), pancreatic (BxPC-3), hepatocarcinoma (Hep3B), neuroblastoma (SH-SY5Y), glioblastoma (SNB-19), medulloblastoma (D283 Med), skin (LS123), squamous cell carcinoma (Scc-15), acute promyelocytic leukemia (APL), myeloblastic (HL-60) and myelomonocytic (U937).\nThe anticancer activity testing will be carried out by high throughput screening. The cancer cells will be cultured in 96 well plates and treated with the library. B3CD has been tested in this system and was effective at a 200 nM dose. For general screening, 2-200 nM doses will be used. Cells will be treated with the compounds for 12, 24, 48 and 72 hours. A 96 well plate format allows testing a large number of compounds simultaneously. An MTS based colorimetric method of evaluation of proliferation will be utilized, which is widely used in cancer drug discovery. The fingerprint of profiled drugs using 60 cell-line screening program by NCl using COMPARE algorithm (Paull K D, Shoemaker R H, Hodes L, Monks A, Scudiero D A, Rubinstein L, Plowman J, Boyd M R. Display and analysis of patterns of differential activity of drugs against human tumor cell lines: development of mean graph and COMPARE algorithm. J Natl Cancer Inst 1989; 81:1088).\n(§1) Materials and methods. Proliferation was measured by MTS and BrdU incorporation assays. Apoptosis was assessed by DNA fragmentation, Cell Death Detection ELISA and caspase-3-assays. Effect of B3CD on TrkB signaling by BDNF was assessed by Western Blot analysis of AKT and ERK phosphorylation. The effect on angiogenesis was determined by chick chorioallantoic membrane (CAM) assay and aortic ring assay."}, "[3]": {"system": "VEGF induced angiogenesis", "assay": "Chick chorioallantoic membrane (CAM) assay", "format": "in vivo", "conditions": "VEGF present", "protocol": "as §1\nThe antiproliferative effect of B3CD on endothelial cells was further investigated.\nThe ability of B3CD to inhibit angiogenesis/neovascularization was tested. Preliminary studies were carried out using chick chorioallantoic membrane (CAM) assay. Calcidiol or B3CD were deposited in the presence of growth factor (VEGF) and deposited on the CAM and eggs were incubated for 3 days at 37° C. (3% CO2). The control carried the growth factor alone. VEGF induces angiogenesis which results in sprouting of capillaries from the large vessels. The compounds diffuse out and any inhibitory molecule would reduce the growth of blood vessel network."}, "[4]": {"system": "SK-N-SH cells", "assay": "Cell viability by MTS assay", "format": "cell-based", "conditions": "0-800 nM, 48 hours", "protocol": "(§2) SK-N-SH and SH-SY5Y neuroblastic cells were treated with increasing doses of calcidiol or B3CD (0, 25, 50, 100, 200, 400 and 800 nM) for 48 hours. Cell viability was assessed by MTS assay and proliferation was determined by BrdU incorporation assay."}, "[5]": {"system": "SK-N-SH cells", "assay": "Proliferation by BrdU incorporation assay", "format": "cell-based", "conditions": "0-800 nM, 48 hours", "protocol": "as §2"}, "[6]": {"system": "caspase-3", "assay": "Caspase-3 activation with specific substrate in SK-N-SH cells", "format": "cell-based", "protocol": "Caspases are integral to apoptosis in cells. Following the treatment of SK-N-SH cells with 250 nM B3CD, activation of caspase-3 was measured by using specific substrate."}, "[7]": {"system": "IMR-32 cells", "assay": "Apoptosis in apoptosis-resistant NB cells", "format": "cell-based", "conditions": "IMR-32, pretreatment before B3CD", "protocol": "(§3) NB is characterized with defective apoptotic pathways. […] Neuronal (N-) type SH-SY5Y and IMR-32 cells, and stromal (S-) type SMS-KCNR cells which are resistant to apoptosis were used. […] A defect in caspase-8 or its activation causes resistance to apoptosis and in turn to chemotherapy in all these cells. On the other hand, these cells carry intact intrinsic apoptotic pathway, and executioner caspase-3 is activated by caspase-9 route.\n(§4) In depth studies were carried out to assess the activation of intrinsic and extrinsic apoptotic pathways. […] Caspase-9 was activated by B3CD in these cells (FIG. 10B), indicating an active role of intrinsic pathway of apoptosis. […] However, caspase-8 was undetectable in IMR-32 and SH-SY5Y cells.\n(§5) Although caspase-8 was detected in SMS-KCNR cells, it was not activated by B3CD (FIG. 10D). Actin immunoblotting was used as loading control in the above studies (data not shown)."}, "[8]": {"system": "SMS-KCNR cells", "assay": "Apoptosis in apoptosis-resistant NB cells", "format": "cell-based", "conditions": "pretreatment before B3CD", "protocol": "as §3, §4, §5"}, "[9]": {"system": "SH-SY5Y, IMR-32 and SMS-KCNR cells", "conditions": "cells with defects in caspase-8 activation; cited from earlier work"}}, "note": "The star is where a group is joined. Cbz = O=C(OCc1ccccc1)*; CH2F = FC*"}
{"compound": "C=C1/C(=C\\C=C2/CCC[C@]3(C)[C@@H]([C@H](C)CCCC(C)(C)O)CC[C@@H]23)C[C@@H](O)C[C@@H]1O", "note": "[calcitriol, 1,25-dihydroxy-vitamin D3, reference compound]", "values": [{"measurement": "clinical signs (lethargy, tolerance to handling, mobility)", "setting": "[1]", "value": "appeared lethargic and exhibited a decreased tolerance to handling with reduced mobility"}]}
{"compound": "C=C1CC[C@H](O)C/C1=C/C=C1\\CCC[C@@]2(C)C1CC[C@@H]2[C@H](C)CCCC(C)(C)O", "note": "(stereo partly drawn) [calcidiol, (1 S,Z)-3-(2-((1R,7aR,E)-1-((R)-6-hydroxy-6-methylheptan-2-yl)-7a-methyloctahydro-4H-inden-4-ylidene)ethylidene)-4-methylenecyclohexan-1-ol, reference compound]", "values": [{"measurement": "antiproliferative, cytotoxic, apoptotic activities", "setting": "[2]", "value": "did not exhibit any antiproliferative, cytotoxic, apoptotic activities"}, {"measurement": "inhibition of angiogenesis / neovascularization (in words)", "setting": "[3]", "value": "no inhibition of neovascularization"}, {"measurement": "viability of SK-N-SH cells (in words)", "setting": "[4]", "value": "did not show any similar effects"}, {"measurement": "proliferation, BrdU incorporation", "setting": "[5]", "value": "did not show inhibitory activity"}, {"measurement": "caspase-3 activation (in words)", "setting": "[6]", "value": "did not show any significant change"}]}
{"compound": "Cbz-LEHD-CH2F [reference compound]", "values": [{"measurement": "effect of pretreatment on B3CD induced apoptosis", "setting": "[7]", "value": "effectively inhibited apoptosis"}, {"measurement": "effect of pretreatment on B3CD induced apoptosis", "setting": "[8]", "value": "effectively inhibited apoptosis"}]}
{"compound": "COc1cccc2c1C(=O)c1c(O)c3c(c(O)c1C2=O)C[C@@](O)(C(=O)CO)C[C@@H]3O[C@H]1C[C@H](N)[C@H](O)[C@H](C)O1", "note": "[doxorubicin]", "values": [{"measurement": "apoptosis and activation of caspase-9 and -3", "setting": "[9]", "value": "undergo apoptosis and activation of caspase-9 and -3"}]}
